Patent US20030045680A1, “Peptidic modulators of the androgen receptor” (Praecis Pharmaceuticals Inc., priority 2001, published 2003)
Square brackets hold non-standard residues; d marks the D form. Peptide text beside a SMILES is read from it.

T1: glutathione S-transferase/human androgen receptor DNA binding domain (amino acids 505-635) (human), P10275
T1 chain: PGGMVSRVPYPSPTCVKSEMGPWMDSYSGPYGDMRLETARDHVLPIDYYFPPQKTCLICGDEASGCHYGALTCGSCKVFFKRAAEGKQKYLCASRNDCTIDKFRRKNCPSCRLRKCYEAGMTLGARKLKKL

T2: glutathione S-transferase/human androgen receptor DNA binding domain (amino acids 505-635) (GST-DBD) (Homo sapiens, UniProt P10275)
T2 construct: gift of Dr. Steven Balk (neither purchased nor made by the applicant)
T2 sequence (P10275 505-635): T1 chain

T3: glutathione S-transferase/human androgen receptor DNA binding domain (amino acids 505-635) (human, UniProt P10275 505-635)
T3 construct: Fusion protein obtained from Dr. Steven Balk; also called GST-DBD; not shown: glutathione S-transferase fusion partner
T3 sequence (looked up): T1 chain

B1: Ac-TIESSSD-NH2 (peptide)
peptide: Ac-TIESSSD-NH2
notes: truncation of Cmpd 10; also called Cmpd No. 29
B2: Ac-FMSETQSSPTK-NH2 (peptide)
peptide: Ac-FMSETQSSPTK-NH2
notes: synthetic peptide of the series based on amino acids 423-548 of ARIP3; also called Cmpd No. 11
B3: Ac-LTIESSSDEEEDPPAKRKAIF-NH2 (peptide)
peptide: Ac-LTIESSSDEEEDPPAKRKAIF-NH2
notes: synthetic peptide of the series based on amino acids 423-548 of ARIP3; also called Cmpd No. 3
B4: Ac-KVESSSVFSKPASVTVASDA-NH2 (peptide)
peptide: Ac-KVESSSVFSKPASVTVASDA-NH2
notes: synthetic peptide of the series based on amino acids 423-548 of ARIP3; also called Cmpd No. 1
B5: Ac-IESSSDE-NH2 (peptide)
peptide: Ac-IESSSDE-NH2
notes: truncation of Cmpd 10; also called Cmpd No. 53
B6: Ac-SVPFHHTPVSSMSSDL-NH2 (peptide)
peptide: Ac-SVPFHHTPVSSMSSDL-NH2
notes: synthetic peptide of the series based on amino acids 423-548 of ARIP3; also called Cmpd No. 12
B7: Ac-FMSETQSSPTKGVLMYQPSSV-NH2 (peptide)
peptide: Ac-FMSETQSSPTKGVLMYQPSSV-NH2
notes: synthetic peptide of the series based on amino acids 423-548 of ARIP3; also called Cmpd No. 5
B8: Ac-IESFSD-NH2 (peptide)
peptide: Ac-IESFSD-NH2
notes: variant of Cmpd 49 (IESSSD); also called Cmpd No. 34
B9: Ac-IESVSD-NH2 (peptide)
peptide: Ac-IESVSD-NH2
notes: variant of Cmpd 49 (IESSSD); also called Cmpd No. 36
B10: Ac-IESSSD-NH2 (peptide)
peptide: Ac-IESSSD-NH2
notes: truncation of Cmpd 10; also called Cmpd No. 49
B11: Ac-SVPFHHTPVS-NH2 (peptide)
peptide: Ac-SVPFHHTPVS-NH2
notes: synthetic peptide of the series based on amino acids 423-548 of ARIP3; also called Cmpd No. 13
B12: Ac-PAAIPPSLTDYSVPFHHTPVSSMSSDL-NH2 (peptide)
peptide: Ac-PAAIPPSLTDYSVPFHHTPVSSMSSDL-NH2
notes: synthetic peptide of the series based on amino acids 423-548 of ARIP3; also called Cmpd No. 8
B13: Ac-TIESSS-NH2 (peptide)
peptide: Ac-TIESSS-NH2
notes: truncation of Cmpd 10; also called Cmpd No. 47
B14: Ac-LTIESSSDE-NH2 (peptide)
peptide: Ac-LTIESSSDE-NH2
notes: truncation of Cmpd 10; also called Cmpd No. 25
B15: Ac-LTIESSSDEE-NH2 (peptide)
peptide: Ac-LTIESSSDEE-NH2
notes: synthetic peptide of the series based on amino acids 423-548 of ARIP3; also called Cmpd No. 10

Target: T1, glutathione S-transferase/human …
Experiment: not given
Conditions: not given

Row | Molecule | IC50 [µM]
1 | H-YGRKKRRQRRRGGGGLTIESSSDEE-NH2 [H-…-NH2] | 6.5

The molecules below were run against glutathione S-transferase/human androgen receptor DNA binding domain (amino acids 505-635) (human) (UniProt P10275) (assay: ECL competition binding assay (IGEN M8): peptide against GST-DBD binding to biotinylated ARE oligonucleotide). Conditions: not given.

Row | Molecule | IC50 [µM]
2 | Ac-DSSSEI-NH2 (also called Cmpd No. 37) [Ac-DSSSEI-NH2] | 20

What follows are molecules tested against T2, glutathione S-transferase/human androgen receptor DNA binding domain (amino acids 505-635) (GST-DBD) (assay: ARE binding assay (competition binding, electrochemiluminescence)). Conditions: not given.
Description: Anti-glutathione S-transferase monoclonal antibody was purchased from Upstate Biotechnology, Inc., Lake Placid, N.Y. (catalogue #05-311). Prior to ruthenium labeling, 1 mg/ml antibody was dialyzed against phosphate-buffered saline, pH 7.2, for 24 hours at 4° C. A 0.5 mg of antibody was incubated with 18.8 μg Origen TAG-succinimidyl ester (IGEN, International, Inc. Gaithersburg, Md., catalogue # 110034) for 1 hour at room temperature in the dark. The reaction was stopped with 20 μl 2M glycine for 10 minutes in the dark. Free label was removed with a NAP-5 column. Protein concentration was determined using the micro-BCA assay (catalogue #23235ZZ) from Pierce, Rockford, Ill.
Oligonucleotides were purchased from Integrated DNA Technologies, Inc., Coralville, Iowa. One nmole of each complementary oligonucleotide, Biotin-5′-[…]-3′ (SEQ ID NO:54) and 5′-[…]-3′ (SEQ ID NO:55) was added to 10 μl water and heated to 95° C. for 2 minutes. NaCl was added to a final concentration of 50 mM and the oligonucleotides were allowed to anneal at room temperature. After 1 hour, the annealed oligonucleotides were resuspended in 1 ml water.
The glutathione S-transferase/human androgen receptor DNA binding domain (amino acids 505-635) (GST-DBD) was obtained from Dr. Steven Balk. Synthesis of similar androgen receptor fusion proteins has been previously described (Sun, Z., Pan, J. and Balk, S. P. (1997) Nucleic Acids Research 25:3318-3325). The competition binding assay was performed in phosphate-buffered saline, pH 7.2, containing 100 ng/ml poly dI/dC (Sigma-Aldrich Co., St. Louis, Mo., catalogue #P4929) in a final volume of 0.2 ml by incubating 3 ng oligonucleotide, 200 ng GST-DBD, 30 ng antibody and the desired concentration of test compound. After 1.5 hours in the dark at room temperature, 12.5 μg streptavidin-coated M-280 Dynabeads (IGEN International, Inc. Gaithersburg, Md., catalogue # 402-175-02) were added and incubated while shaking for 30 minutes in the dark. Plates were analyzed on an IGEN M8 Electrochemiluminescence Detection Unit (IGEN, International, Inc. Gaithersburg, Md.).

Row | Molecule | IC50 [µM]
3 | H-YGRKKRRQRRRGGGGLTIESSSDEE-NH2 [compound 54] | 6.5

Same assay, conditions: inhibition of binding of androgen receptor DNA binding domain to biotinylated ARE oligonucleotide; average where more than one assay, replications in parentheses; read-out: IC50

Row | Molecule | IC50 [µM]
4 | CC[C@@H](C)[C@@H](NC(C)=O)C(=O)N[C@H](CCC(=O)O)C(=O)N[C@H](CO)C(=O)N[C@H](CO)C(=O)N[C@H](CO)C(=O)N[C@H](CC(=O)O)C(N)=O [compound 38, Ac-iesssd-NH2] (Ac-[dI][dE][dS][dS][dS][dD]-NH2) | 20
5 | CC[C@@H](C)[C@@H](NC(=O)[C@@H](CCC(=O)O)NC(=O)[C@@H](CO)NC(=O)[C@@H](CO)NC(=O)[C@@H](CO)NC(=O)[C@@H](CC(=O)O)NC(C)=O)C(N)=O [compound 39, Ac-dsssei-NH2] (Ac-[dD][dS][dS][dS][dE][dI]-NH2) | 20
6 | Ac-ATIESSSDEE-NH2 [compound 16, Ac-ATIESSSDEE-NH2] | 25
7 | Ac-DSSSEI-NH2 [compound 37, Ac-DSSSEI-NH2] | 20
8 | Ac-EDPPAKRKAIFMSETQSSPTK-NH2 [compound 4] | > 50
9 | Ac-ESSSDE-NH2 [compound 50, Ac-ESSSDE-NH2] | 11
10 | Ac-IASASD-NH2 [compound 33, Ac-IASASD-NH2] | 20
11 | Ac-IESASD-NH2 [compound 32, Ac-IESASD-NH2] | 20
12 | Ac-IESLSD-NH2 [compound 35, Ac-IESLSD-NH2] | 20
13 | Ac-IESSSDEE-NH2 [compound 48, Ac-IESSSDEE-NH2] | > 50
14 | Ac-KGVLMYQSSVRVPSVTSVDP-NH2 [compound 6] | > 50
15 | Ac-KPASVTVASDASKKIDVIDL-NH2 [compound 2] | > 50
16 | Ac-KVESSSVFS-NH2 [compound 9, Ac-KVESSSVFS-NH2] | > 50
17 | Ac-LAIESSSDEE-NH2 [compound 17, Ac-LAIESSSDEE-NH2] | 25
18 | Ac-LTAESSSDEE-NH2 [compound 18, Ac-LTAESSSDEE-NH2] | 25
19 | Ac-LTIESS-NH2 [compound 26, Ac-LTIESS-NH2] | > 50
20 | Ac-LTIESSSAEE-NH2 [compound 22, Ac-LTIESSSAEE-NH2] | 20
21 | Ac-LTIESSSDEE-OH [compound 30, Ac-LTIESSSDEE-OH] | 7.4
22 | Ac-LTIESSSDEEEDPPAKRKAIF-NH2 [compound 3] | 22
23 | Ac-SSSDEE-NH2 [compound 51, Ac-SSSDEE-NH2] | 22
24 | Ac-TIESSSDE-NH2 [compound 28, Ac-TIESSSDE-NH2] | 22
25 | Ac-TIESSSDEE-NH2 [compound 27, Ac-TIESSSDEE-NH2] | 22
26 | Ac-TPVSSMSSDL-NH2 [compound 14, Ac-TPVSSMSSDL-NH2] | 7.4
27 | Ac-VRVPSVTSVDPAAIPPSLTDY-NH2 [compound 7] | > 50
28 | H-LTIESSSDEE-NH2 [compound 15, H-LTIESSSDEE-NH2] | 25

What follows are molecules tested against T3, glutathione S-transferase/human … (assay: ECL competition binding assay (IGEN M8): peptide against GST-DBD binding to biotinylated ARE oligonucleotide). Conditions: not given.

Row | Molecule | IC50 [µM]
29 | B1 | 40
30 | B2 | 5.6
31 | B3 | 22
32 | B4 | 34
33 | B5 | 19
34 | B6 | 8.2
35 | B7 | 15
36 | Ac-DSSSEI-NH2 (also called Cmpd No. 37) [Ac-DSSSEI-NH2] | 20
37 | B8 | 63
38 | B9 | 5.3
39 | B10 | 4.3
40 | B11 | 27
41 | B12 | 28
42 | B13 | 12
43 | B14 | 30
44 | B15 | 4.7
45 | Ac-LTIEASSDEE-NH2 (also called Cmpd No. 20) [Ac-LTIEASSDEE-NH2] | 18
46 | Ac-LTIASSSDEE-NH2 (also called Cmpd No. 19) [Ac-LTIASSSDEE-NH2] | 6.6
47 | Ac-LTIESSSDEA-NH2 (also called Cmpd No. 24) [Ac-LTIESSSDEA-NH2] | 2.6
48 | Ac-LTIESSSDAE-NH2 (also called Cmpd No. 23) [Ac-LTIESSSDAE-NH2] | 14
49 | Ac-LTIESASDEE-NH2 (also called Cmpd No. 21) [Ac-LTIESASDEE-NH2] | 1.5

Target: T1, glutathione S-transferase/human …
Experiment: as above
Conditions: not given

Row | Molecule | IC50 [µM]
50 | Ac-IESLSD-NH2 [Ac-IESLSD-NH2] | 20
51 | Ac-ESSSDE-NH2 [Ac-ESSSDE-NH2] | 11
